We go through one molecule from patent US10617734B2, “STAT3 and ERK signal pathway inhibitor comprising mogrosides and analogs thereof” (BEIJING UNIVERSITY OF AGRICULTURE, priority 2014, dated 2020).

The test system of assay [1] is cycle regulatory protein P21. Put plainly: Western Blotting of P21 in K562 cells. The note with it: leukemia cells K562, 10 μmol/L, 24 h. Format: cell-based, human. Here is the method:
(§1) The STAT3 and ERK signal pathways can regulate cyclins and apoptosis genes, and in order to verify the effects of […] and mogrol, the expression status of downstream genes of STAT3 and ERK was detected, wherein the influences of the three mogrosides and analogs thereof, i.e. Mogrol I E1, Mogrol II A2 and mogrol, on Bcl-2 and P21 proteins in the histiocytic lymphoma U937 cells, human melanoma A875 cells and leukemia cells K562 were determined, respectively.
(§2) The regulation of Bcl-2 and P21 proteins by mogrosides and analog thereof to the was detected by Western Blotting, specifically: histiocytic lymphoma U937 cells, human melanoma A875 cells and leukemia cells K562 (1×10^6 cells/well) were inoculated into a 6-well culture plate overnight, and 0 and 10 μmol/L of the mogrosides and analogs thereof were added respectively, and kept cultured for 24 h. […]
(§3) The protein concentration was measured with bovine serum albumin (BSA) as the standard. 50 μg of the total proteins were separated by polyacrylamide gel electrophoresis with 12% SDS, and electrophoretically transferred to a PVDF membrane (polyvinylidene fluoride membrane), and blocked for 1 h by 5% of skim milk (containing 0.1% of Tween 20), and then antibodies P21, Bcl-2 and β-actin were added, wherein the primary antibody was incubated at 4° C. overnight (β-actin was used as reference loading amount); the membrane was washed for 3 times with TBS-T, 5 min each time; secondary antibody marked by horseradish peroxidase (HRP) was added for incubation at room temperature for 1 h, the membrane was washed with rinse solution (TBS-T) for 3 times, 10 min each time, and then ECL was added for incubation in dark for 5 min, and subsequently, a fluorescence imaging analyzer was used for image development and scanning analysis.
For orientation: Immunoblotting shows a protein as a band on a membrane.

For assay [2], the system named is human melanoma A875 cells. In words: Cell cycle distribution, PI staining, flow cytometer. The format is cell-based. An excerpt: (§4) The influences of Mogroside I E1, Mogroside II A2 and mogrol on the cell cycle distribution of the histiocytic lymphoma U937 cells, the human melanoma A875 cells and the leukemia cells K562.
(§5) The cell cycle arrest achieved by drugs is an important approach to the inhibition of cancer cell proliferation.
A general note: Flow cytometry measures light scatter and fluorescence of single cells or particles in a stream.

Assay [3] relates to histiocytic lymphoma U937 cells. The assay is described as above. The format is cell-based. The settings on record: 24 h.
Text: as §4, §5

Assay [4] deals with cycle regulatory protein P21. Put plainly: Western Blotting of P21 in A875 cells. The format is cell-based. The settings on record: human melanoma A875 cells, 10 μmol/L, 24 h. Here is the method: as §1, §2, §3

For `C[C@H](CC[C@@H](O)C(C)(C)O)[C@H]1CC[C@@]2(C)[C@@H]3CC=C4[C@@H](CC[C@H](O)C4(C)C)[C@]3(C)[C@H](O)C[C@]12C` [mogrol], the “expression of cycle regulatory protein P21” value in assay [1] and in assay [4] was “significantly up-regulated” each time. In addition, the “cell cycle distribution (proportion of cells in the G0/G1 phase)” value in assay [2] (human melanoma A875 cells, 10 μmol/L, 24 h) is recorded as “G0/G1 arrest”. Also, in assay [2] (melanoma A875 cells, different concentrations (FIG. 12)), the “proportion of cells in the G0/G1 phase with the rise of the concentration” value is “gradually increased”. The “proportion of cells in G0/G1 phase with the rise of the concentration” value in assay [3] (U937 cells, 0, 1, 10, 150 and 250 μmol/L) is given as “gradually increased”. For the same molecule, the “cell cycle distribution (proportion of cells of G0/G1 phase)” value in assay [3] (U937 cells, 10 μmol/L) is recorded as “G0/G1 arrest”.
